Measured values from US6855710B2, “Substituted indolines with an inhibitory effect on various kinases and complexes of CDKs” (Boehringer Ingelheim Pharma KG, priority 1998, dated 2005).

| Structure (SMILES) | melting point |
| --- | --- |
| CCS(=O)(=O)N(CC(=O)NCCN(C)C)c1ccc(N/C(=C2\C(=O)Nc3ccc([N+](=O)[O-])cc32)c2ccccc2)cc1 [Example 295, (Z)-3-{1-[4-(N-(2-dimethylamino-ethylaminocarbonylmethyl)-N-ethylsulphonyl-amino)-phenylamino]-1-phenyl-methylidene}-5-nitro-2-indolinone] | 155 °C |
| CN(Cc1ccccc1)Cc1ccc(N/C(=C2\C(=O)Nc3ccc([N+](=O)[O-])cc32)c2ccccc2)cc1 [Example 238, (Z)-3-{1-[4-(N-benzyl-N-methyl-aminomethyl)-phenylamino]-1-phenyl-methylidene}-5-nitro-2-indolinone] | 200 to 201 °C |
| Cc1ccc(/C(Nc2ccc(CN(C)C)cc2)=C2/C(=O)Nc3ccccc32)cc1 [Example 211, (Z)-3-[1-(4-dimethylaminomethyl-phenylamino)-1-(p-tolyl)-methylidene]-2-indolinone] | 208 to 209 °C |
| CN(C)Cc1ccc(N/C(=C2\C(=O)Nc3ccccc32)c2ccc([N+](=O)[O-])cc2)cc1 [Example 219, (Z)-3-[1-(4-dimethylaminomethyl-phenylamino)-1-(4-nitrophenyl)-methylidene]-2-indolinone] | 235 °C |
| O=C1Nc2ccc([N+](=O)[O-])cc2/C1=C(/Nc1ccc(CN2CCC(CO)CC2)cc1)c1ccccc1 [Example 250, (Z)-3-{1-[4-(4-hydroxymethyl-piperidinomethyl)-phenylamino]-1-phenyl-methylidene}-5-nitro-2-indolinone] | 227 to 228 °C |
| CC(C)(C)OC(=O)NCC(=O)NCc1ccc(N/C(=C2\C(=O)Nc3ccc([N+](=O)[O-])cc32)c2ccccc2)cc1 [Example 144, (Z)-3-[1-(4-tert.butoxycarbonylaminomethylcarbonylaminomethyl-phenylamino)-1-phenyl-methylidene]-5-nitro-2-indolinone] | 219 to 221 °C (dec.) |
| O=C1Nc2ccc([N+](=O)[O-])cc2/C1=C(/Nc1ccc(CCN2CCC(C(=O)O)CC2)cc1)c1ccccc1 [Example 263, (Z)-3-{1-[4-(2-(4-carboxypiperidino)-ethyl)-phenylamino]-1-phenyl-methylidene}-5-nitro-2-indolinone] | 287 to 288 °C |
| O=C1Nc2ccc([N+](=O)[O-])cc2/C1=C(/Nc1ccc(Br)cc1)c1ccc(Cn2ccnc2)cc1 [Example 438, (Z)-3-{1-[4-Bromophenylamino]-1-[4-(imidazol-1-ylmethyl)-phenyl]-methylidene}-5-nitro-2-indolinone] | 260 to 265 °C |
| CN(C(=O)CN1CCNCC1)c1ccc(N/C(=C2\C(=O)Nc3ccccc32)c2ccccc2)cc1.Cl.Cl | 255 to 258 °C (dec.) |
| CN(CCN1CCOCC1)CC(=O)N(C)c1ccc(N/C(=C2\C(=O)Nc3ccccc32)c2ccccc2)cc1 [Example 374, (Z)-3-{1-[4-(N—(N-(2-morpholinoethyl)-N-methyl-aminomethyl-carbonyl)-N-methylamino)-phenylamino]-1-phenyl-methylidene}-2-indolinone] | 116 to 118 °C |
| O=C(CN1CCOCC1)NCc1ccc(N/C(=C2\C(=O)Nc3ccc([N+](=O)[O-])cc32)c2ccccc2)cc1 [Example 141, (Z)-3-[1-(4-morpholinomethylcarbonylaminomethyl-phenylamino)-1-phenyl-methylidene]-5-nitro-2-indolinone] | 290 to 295 °C |
| CS(=O)(=O)N(CCN1CCOCC1)c1cccc(N/C(=C2\C(=O)Nc3ccccc32)c2ccccc2)c1 [Example 325, (Z)-3-{1-[3-(N-(2-morpholinoethyl)-N-methylsulphonyl-amino)-phenylamino]-1-phenyl-methylidene}-2-indolinone] | 177 to 179 °C |

Next, values leading:

| melting point | Structure (SMILES) |
| --- | --- |
| 200 to 205 °C | CN(C)CC(=O)NCc1ccc(N/C(=C2\C(=O)Nc3ccccc32)c2ccccc2)cc1 [Example 74, (Z)-3-[1-(4-dimethylaminomethylcarbonylaminomethyl-phenylamino)-1-phenyl-methylidene}-2-indolinone] |
| 276 to 278 °C | CS(=O)(=O)N(CC(N)=O)c1ccc(N/C(=C2\C(=O)Nc3ccccc32)c2ccccc2)cc1 [Example 191, (Z)-3-{1-[4-(N-aminocarbonylmethyl-N-methylsulphonyl-amino)-phenylamino]-1-phenyl-methylidene}-2-indolinone] |
| 241 to 243 °C | CN(C)CCN(c1ccc(N/C(=C2\C(=O)Nc3ccccc32)c2ccccc2)cc1)S(=O)(=O)c1ccccc1 [Example 312, (Z)-3-{1-[4-(N-(2-dimethylaminoethyl)-N-phenylsulphonyl-amino)-phenylamino]-1-phenyl-methylidene}-2-indolinone] |
| 198 to 200 °C | O=C1Nc2ccccc2/C1=C(/Nc1ccc(OCCN2CCCCC2)cc1)c1ccccc1 [Example 285, (Z)-3-{1-[4-(2-piperidinoethyloxy)-phenylamino]-1-phenyl-methylidene}-2-indolinone] |
| 244 to 247 °C | CCOC(=O)CN(C(C)=O)c1ccc(N/C(=C2\C(=O)Nc3ccccc32)c2ccccc2)cc1 [Example 352, (Z)-3-{1-[4-(N-ethoxycarbonylmethyl-N-acetyl-amino)-phenylamino]-1-phenyl-methylidene}-2-indolinone] |
| 287 to 288 °C | CCN(CC)CC(=O)Nc1ccc(N/C(=C2\C(=O)Nc3ccc([N+](=O)[O-])cc32)c2ccccc2)cc1.Cl |
| 206 to 207 °C | CCOC(=O)CN(C)S(=O)(=O)c1ccc(N/C(=C2\C(=O)Nc3ccc([N+](=O)[O-])cc32)c2ccccc2)cc1 [Example 413, (Z)-3-{1-[4-(N-ethoxycarbonylmethyl-N-methyl-aminosulphonyl)-phenylamino]-1-phenyl-methylidene}-5-nitro-2-indolinone] |
| 237 °C (dec.) | CN(CC(=O)O)S(=O)(=O)c1ccc(N/C(=C2\C(=O)Nc3ccccc32)c2ccccc2)cc1 [Example 409, (Z)-3-{1-[4-(N-carboxymethyl-N-methyl-aminosulphonyl)-phenylamino]-1-phenyl-methylidene}-2-indolinone] |
| 167 to 169 °C | CN(C)CCN(C)CC(=O)N(C)c1ccc(N/C(=C2\C(=O)Nc3ccccc32)c2ccccc2)cc1 [Example 375, (Z)-3-{1-[4-(N—(N-(2-dimethylaminoethyl)-N-methyl-aminomethylcarbonyl)-N-methylamino)-phenylamino]-1-phenyl-methylidene}-2-indolinone] |
| 252 to 254 °C | CCN(CC)S(=O)(=O)c1ccc(N/C(=C2\C(=O)Nc3ccccc32)c2ccccc2)cc1 [Example 398, (Z)-3-{1-[4-(diethylaminosulphonyl)-phenylamino]-1-phenyl-methylidene}-2-indolinone] |
| 236 °C (dec.) | O=C(O)CNS(=O)(=O)c1ccc(N/C(=C2\C(=O)Nc3ccccc32)c2ccccc2)cc1 [Example 407, (Z)-3-{1-[4-(carboxymethylaminosulphonyl)-phenylamino]-1-phenyl-methylidene}-2-indolinone] |
| 268 to 269 °C | CN(C)CCCNS(=O)(=O)c1ccc(N/C(=C2\C(=O)Nc3ccc([N+](=O)[O-])cc32)c2ccccc2)cc1 [Example 403, (Z)-3-{1-[4-(3-dimethylamino-propylaminosulphonyl)-phenylamino]-1-phenyl-methylidene}-5-nitro-2-indolinone] |
